This note sets out measurements from patent publication US20250263437A1, “POLYPEPTIDE FOR REPAIRING SKIN WOUND OR MUCOSAL INJURY, AND APPLICATION THEREOF” (Sichuan Gooddoctor Panxi Pharmaceutical Co., Ltd., priority 2021, published 2025).

Where no end group is shown, it is not given here.

The first experiment has as its system ethanol-induced gastric ulcer model in mice. Description: Anti-ulcer effect on ethanol-induced gastric ulcer model in mice. Format: in vivo. To be noted: single administration; ulcer inhibition rate of test compound / ulcer inhibition rate of Compound 1. On the procedure:
Experimental animals: Six-week old C57BL/6JGPt male mice, weighing about 20 g/mouse, were selected, with 10 mice in each group, from GemPharmatech (Chengdu) Co., Ltd., animal license number: SCXK (Chuan) 2020-034. After the experimental animals were divided into groups, they were dosed according to Table 5 one day before the experiment. Among the groups, the model group was given 200 μl of pure water, and the other dose groups were given 200 μl of drug solution. After that, all the animals were fasted for 24 h with free access to water. The next day, 1 h after administration, the mice in each group were given 9 μl/g of absolute ethanol by oral gavage for modeling. After 1 h, the animals were sacrificed by cervical dislocation, the gastric cardia was ligated, the pylorus was occluded, and the whole stomach was removed. 1 mL of 1% formaldehyde solution was injected into the gastric lumen via the glandular stomach, the cardia was ligated, and the stomach was taken out and immediately immersed in 1% formaldehyde solution. After soaking for 30 min, the stomach tissue was taken out and cut open along the greater curvature. The content of the stomach was rinsed off with normal saline, the injury of the gastric mucosa in the mice were observed and measured after being laid flat, and the ulcer index and ulcer inhibition rate were calculated; panoramic photos of the stomach were taken; and finally, the gastric tissue sample was immersed in formalin and fixed. Calculation method for ulcer index: If the length of cord-like injury was greater than 1 mm, the length thereof was measured, with 1 point per millimeter; if the width thereof was greater than 1 mm, the score thereof was doubled according to the number of millimeters of the width; and if the length was less than 1 mm, a score of 0.5 was given, and the scores were added up to obtain the ulcer index of the animal. Method of data statistics: the ulcer index was expressed as mean±standard deviation; the ulcer inhibition rate was calculated by using the median value and mean value of the ulcer index in each dosage group and simulation group; and the data were statistically analyzed by means of Excel, and the difference data of the gastric ulcer index were statistically analyzed by means of independent sample T test.
Regarding SMQASLEAEAHGKAE [Compound 32], the “Anti-ulcer activity (mean relative ulcer inhibition rate)” value was found to be 0.52.

As for SMQASL [Compound 8], the “Anti-ulcer activity (mean relative ulcer inhibition rate)” value worked out at 0.89.

With SMQASLEAEAKGKAEA [Compound 52], the “Anti-ulcer activity (mean relative ulcer inhibition rate)” value is listed as 0.67.

For the substance SMQASLAAEAKGKAE [Compound 19], the “Anti-ulcer activity (mean relative ulcer inhibition rate)” value stood at 0.64.

Turning to SMQATLEAEAKGKAE [Compound 41], the “Anti-ulcer activity (mean relative ulcer inhibition rate)” value came out at 0.92.

On to SAQASLEAEAKGKAE [Compound 16], for which the “Anti-ulcer activity (mean relative ulcer inhibition rate)” value amounted to 0.98.

In the case of SMEASLEAEAKGKAE [Compound 37], the “Anti-ulcer activity (mean relative ulcer inhibition rate)” value was determined as 0.22.

For EAEAKGKAE [Compound 7], the “Anti-ulcer activity (mean relative ulcer inhibition rate)” value amounted to 1.69.

As for SMQASLEALAKGKAE [Compound 34], the “Anti-ulcer activity (mean relative ulcer inhibition rate)” value was found to be 0.91.

In the case of SMQASLEAEAKGKSE [Compound 60], the “Anti-ulcer activity (mean relative ulcer inhibition rate)” value is recorded as 1.03.

Regarding SLQASLEAEAKGKAE [Compound 17], the “Anti-ulcer activity (mean relative ulcer inhibition rate)” value is listed as 0.74.

SMQASLEAEAKGKAKQE [Compound 58]: the “Anti-ulcer activity (mean relative ulcer inhibition rate)” value amounted to 0.52.

SMQASLEAEAKGKAQE [Compound 50]: the “Anti-ulcer activity (mean relative ulcer inhibition rate)” value is given as 0.09.

On to SMQASLEAEAKGKAD [Compound 23], for which the “Anti-ulcer activity (mean relative ulcer inhibition rate)” value is 0.70.

With SMQASLEAEAKGAAE [Compound 26], the “Anti-ulcer activity (mean relative ulcer inhibition rate)” value is 0.56.

With AEPVPLEAEAKGKAE [Compound 54], the “Anti-ulcer activity (mean relative ulcer inhibition rate)” value is 0.59.

In the case of SMQASAEAEAKGKAE [Compound 15], the “Anti-ulcer activity (mean relative ulcer inhibition rate)” value stood at 0.72.

As to SMQASLDAEAKGKAE [Compound 38], the “Anti-ulcer activity (mean relative ulcer inhibition rate)” value is reported as 1.38.

Consider PAAEPVPLEAEAKGKAE [Compound 55], for which the “Anti-ulcer activity (mean relative ulcer inhibition rate)” value is recorded as 0.20.

Turning to SMQASLEAESKGKAE [Compound 44], the “Anti-ulcer activity (mean relative ulcer inhibition rate)” value is 0.16.

On to SMQASVEAEAKGKAE [Compound 42], for which the “Anti-ulcer activity (mean relative ulcer inhibition rate)” value came to 0.84.

On to SMQASLEAEAKGK [Compound 3], for which the “Anti-ulcer activity (mean relative ulcer inhibition rate)” value was determined as 0.33.

Regarding SMQASLEAAAKGKAE [Compound 20], the “Anti-ulcer activity (mean relative ulcer inhibition rate)” value came out at 0.56.

Consider QASLEAEAKGK [Compound 4], for which the “Anti-ulcer activity (mean relative ulcer inhibition rate)” value was found to be 0.82.

With Teprenone [reference compound], the “Anti-ulcer activity (mean relative ulcer inhibition rate)” value was 0.5.

As to SMQASLEAEAAGKAE [Compound 18], the “Anti-ulcer activity (mean relative ulcer inhibition rate)” value is 0.91.

Consider SMQASLEAQAKGKAE [Compound 36], for which the “Anti-ulcer activity (mean relative ulcer inhibition rate)” value was 0.07.

As to SMQASLEAEAKGKAKQD [Compound 53], the “Anti-ulcer activity (mean relative ulcer inhibition rate)” value came out at 0.44.

In the case of SMAASLEAEAKGKAE [Compound 21], the “Anti-ulcer activity (mean relative ulcer inhibition rate)” value turned out to be 0.87.

With TASTLEAEAKGKAE [Compound 47], the “Anti-ulcer activity (mean relative ulcer inhibition rate)” value is reported as 0.61.

Regarding AMQASLEAEAKGKAE [Compound 29], the “Anti-ulcer activity (mean relative ulcer inhibition rate)” value came to 1.00.

SMQASLEAEAKGKAQ [Compound 13]: the “Anti-ulcer activity (mean relative ulcer inhibition rate)” value amounted to 1.02.

Take RKDVYEAEAKGKAE [Compound 59]: the “Anti-ulcer activity (mean relative ulcer inhibition rate)” value was 0.48.

For SMQASLEAEAKGKAN [Compound 24], the “Anti-ulcer activity (mean relative ulcer inhibition rate)” value worked out at 0.62.

With STQASLEAEAKGKAE [Compound 48], the “Anti-ulcer activity (mean relative ulcer inhibition rate)” value turned out to be 1.19.

Regarding SMQASLEAEAKGKAEL [Compound 51], the “Anti-ulcer activity (mean relative ulcer inhibition rate)” value is recorded as 0.62.

SMQASLQAEAKGKAE [Compound 35]: the “Anti-ulcer activity (mean relative ulcer inhibition rate)” value is on record as 0.57.

As to SMQASLEADAKGKAE [Compound 39], the “Anti-ulcer activity (mean relative ulcer inhibition rate)” value is 0.83.

SMQAALEAEAKGKAE [Compound 28]: the “Anti-ulcer activity (mean relative ulcer inhibition rate)” value is given as 0.67.

Take SMQASLEAEARGKAE [Compound 30]: the “Anti-ulcer activity (mean relative ulcer inhibition rate)” value is given as 0.33.

With “Ser-Met (O)-Gln-Ala-Ser-Leu-Glu-Ala-Glu-Ala-Lys-Gly-Lys-Ala-Glu [Compound 11]”, the “Anti-ulcer activity (mean relative ulcer inhibition rate)” value is 1.08.

With TMQASLEAEAKGKAE [Compound 40], the “Anti-ulcer activity (mean relative ulcer inhibition rate)” value was 0.18.

With SIQASLEAEAKGKAE [Compound 22], the “Anti-ulcer activity (mean relative ulcer inhibition rate)” value came out at 0.81.

In the case of EAEAAGKAE [Compound 61], the “Anti-ulcer activity (mean relative ulcer inhibition rate)” value was determined as 0.52.

Regarding SMQASLEAEAKAKAE [Compound 56], the “Anti-ulcer activity (mean relative ulcer inhibition rate)” value came out at 0.91.

Turning to SMQASLEAEAKGKAQD [Compound 49], the “Anti-ulcer activity (mean relative ulcer inhibition rate)” value was 0.48.

On to SMQASLESEAKGKAE [Compound 43], for which the “Anti-ulcer activity (mean relative ulcer inhibition rate)” value is reported as 0.30.

As to “Glu-Ala-Glu-Ala (EAEA; printed: Glu-Ala-Glu-Ala) [Compound 45]”, the “Anti-ulcer activity (mean relative ulcer inhibition rate)” value came out at 0.50.

Consider EAEAKGK [Compound 46], for which the “Anti-ulcer activity (mean relative ulcer inhibition rate)” value is recorded as 0.47.

For SMQASLEAEAKGKAA [Compound 27], the “Anti-ulcer activity (mean relative ulcer inhibition rate)” value is listed as 0.51.

With SMQASLEAEAKGRAE [Compound 25], the “Anti-ulcer activity (mean relative ulcer inhibition rate)” value is on record as 0.36.

Consider SVQASLEAEAKGKAE [Compound 12], for which the “Anti-ulcer activity (mean relative ulcer inhibition rate)” value came out at 0.68.

Take “Gly-Lys-Ala-Glu (GKAE; printed: Gly-Lys-Ala-Glu) [Compound 10]”: the “Anti-ulcer activity (mean relative ulcer inhibition rate)” value came to 0.56.

For QASLEAEAKGKAE [Compound 2], the “Anti-ulcer activity (mean relative ulcer inhibition rate)” value was determined as 0.45.

Consider SMQASLLAEAKGKAE [Compound 33], for which the “Anti-ulcer activity (mean relative ulcer inhibition rate)” value was found to be 0.31.

Consider “Gln-Ala-Ser-Leu (QASL; printed: Gln-Ala-Ser-Leu) [Compound 9]”, for which the “Anti-ulcer activity (mean relative ulcer inhibition rate)” value came to 0.59.

Turning to SMQASLEAEAK [Compound 5], the “Anti-ulcer activity (mean relative ulcer inhibition rate)” value is listed as 0.84.

For the substance SMQASLEAEAKGHAE [Compound 31], the “Anti-ulcer activity (mean relative ulcer inhibition rate)” value turned out to be 0.50.

Take SMQASLQAQAKGKAE [Compound 14]: the “Anti-ulcer activity (mean relative ulcer inhibition rate)” value was determined as 0.49.

Take SMQASLEAEAKPKAE [Compound 57]: the “Anti-ulcer activity (mean relative ulcer inhibition rate)” value was 1.12.

A further experiment relates to HaCaT cells. In words: Proliferation of HaCaT cells (CCK8). It counts as cell-based, human. To be noted: 0.2-0.8 μg/mL; 24 h, 48 h and 72 h; 1% serum. How it is done: Experimental method: Immortalized human keratinocytes (HaCaT cells) was adjusted to a concentration of 1.0×10^5 to 5.0×10^5/mL for passaging, and they were cultured at 37° C. and 5% CO2 for 24-36 h for biological activity detection. The cells were digested with 0.25% trypsin for 5 min, 1640 whole blood culture medium, the volume of which was not less than 1 time of the volume of the trypsin, was added to stop digestion, a cell suspension was collected, centrifuged at 1000 RPM for 3 min, the supernatant was discarded, 2 mL of 1640 whole blood culture medium was added to suspend the cells, 20 μL of the cell suspension was taken and stained with AOPI, the concentration of cells in the suspension was then detected by a cell counter, the suspension was prepared to a concentration of 5×10^4/mL with 1640 culture medium containing serum at a concentration of 10% and inoculated into a 96-well cell culture plate, with 100 μL per well, i.e., 5000 cells/well, and the plate was cultured at 37° C. and 5% CO2 overnight.
After 24 h, the original culture medium was discarded, and 100 μL of polypeptide compound solutions with different concentrations prepared with 1640 culture medium containing serum at a concentration of 1% were added, such that the final concentrations of the polypeptide compounds to be tested were 0.2, 0.4 and 0.8 ug/mL, respectively. In addition, an EGF control group was prepared by adding 100 μL of a recombinant human epidermal growth factor (EGF) solution prepared with 1640 culture medium containing serum at a concentration of 1%, with the final concentration being 100 ng/ml. In the model control group, an equal volume of 1640 culture medium containing serum at a concentration of 1% was added. After culturing at 37° C. and 5% CO2 for 24 h, 48 h and 72 h, the proliferation of the HaCaT cell line was detected by means of CCK8 kit.
Consider SMQASLEAEAKGKAKQD [Compound 53], for which the “effect on proliferation of HaCaT cells” value is given as “proliferation-promoting effect”.

On to SMQASLEAEAKPKAE [Compound 57], for which the “effect on proliferation of HaCaT cells” value is “proliferation-promoting effect”.
